The values that follow come from patent publication EP0408782A1, “Antihypoxic agent” (NAUCHNOISSLEDOVATELSKI CHIMIKOPHARMATZEVTICHEN INSTITUT, priority 1989, dated 1991).

SMILES strings stand for the structures. Read-outs that look alike come from different tables or passages of the source.

Series [1] relates to mice. Description: hypobaric hypoxia in mice (survival time in decompression chamber, 210 mmHg). The conditions noted are these: 1 hour before the hypoxia. Type of series: in vivo, white mice line H. As for the experimental part: EXAMPLE 1: Pharmacological study: Cerebro-protective anti-hypoxic effect using the method "hypobaric hypoxia" in mice. The experiments are carried out on white mice line H (18-22 g) in groups of 8 animals. […] The survival time (in seconds) from the beginning of the hypoxia till the death of the animals was measured. The results were calculated as a percentage towards the control group. […]

Series [2] has as its system mice. Nature of the series: complete ischaemia by decapitation in mice (duration of respiratory movements of the isolated head). The conditions noted are these: 1 hour before. The class given is in vivo, white mice line H. The protocol: Example 2. Pharmacological study of the cerebro-protective anti-ischaemic effect using the method of"complete ischaemia by decapitation" in mice. The experiments are carried out on white mice line H (18-22g) in groups of 8 animals. Complete […] caused by means of a decapitation of the animals using the method of Hollowach-Thurston et al.(9). The duration of the respiratory movements of the isolated head (in seconds) was measured. The results are calculated as a percentage towards the control group. […]

In series [3] the test system is mice. The conditions noted are these: mouse, in vivo.
A short description of series [4]: in vivo. The conditions noted are these: mouse.

For orientation: LD50 means the dose expected to kill half of the subjects tested. The low end stands for greater toxicity, the high end for lower toxicity.

For `Fc1ccc(C(c2ccc(F)cc2)N2CCN(C/C=C/c3ccccc3)CC2)cc1` [Flunarizine], in series [1] (10 mg/kg intraperitoneally), the “Increase of the resistancy towards hypoxia (% towards the control group)” value was 11,7%. Also, the “Increase of the resistance towards ischaemia (% towards the control group)” value in series [2] (10 mg/kg intraperitoneally) is on record as 42,8%. Also, the LD₅₀ in series [3] (ip) is 204/158+264/ mg/kg; in series [3] (po), 232/182+295/ mg/kg. The figures for the LD50 in series [4] (ip) and in series [4] (po) were 204 mg/kg and 232 mg/kg, respectively.
`NC(=O)CN1CCCC1=O` [Piracetam, 2-oxo-1-pyrrolidineacetamide]: the “Increase of the resistancy towards hypoxia (% towards the control group)” value in series [1] (1600 mg/kg intraperitoneally) is given as 22,8%. Also, the “Increase of the resistance towards ischaemia (% towards the control group)” value in series [2] (1600 mg/kg intraperitoneally) is recorded as 27,9%. Further, the LD50 in series [4] (ip) and in series [4] (po) was 8000 mg/kg throughout.
